Data taken from PMC10320002, “In vitro antiproliferative, anti-inflammatory effects and molecular docking studies of natural compounds isolated from Sarcocephalus pobeguinii (Hua ex Pobég)” (Frontiers in Pharmacology, 2023).
Where “and” joins values, the source holds several entries; their conditions need not be identical. Identical values can stand only once. Like-named read-outs stand apart in the source and are kept apart here.

Legend:
MCF-7 cells = experiment: MTT antiproliferation assay, MCF-7; assay type: cell-based, human; settings: for IC50: Homo sapiens, MCF7, 48 h, MTT; for SI values MCF7: IC50 of non-cancerous Vero cells divided by IC50 of MCF-7
Protocol: (§1) Cancerous cell lines (MCF-7: human breast adenocarcinoma cells; HepG2: human hepatocellular carcinoma cells; Caco-2: human epithelial colorectal adenocarcinoma cells; A549: human epithelial lung adenocarcinoma cells), obtained from the American Type Culture Collection (ATCC) (Rockville, MD, United States of America), were cultured in Dulbecco’s Modified Eagle’s Medium (DMEM) high glucose (4.5 g/L) containing L-glutamine (4 mM) and sodium-pyruvate (Hyclone™) supplemented with 10% (v/v) fetal bovine serum (FBS) (Capricorn Scientific GmbH, South America), and incubated at 37°C with 5% CO2 in a humidified environment. African green monkey (Vero) kidney cells (also obtained from ATCC), a non-cancerous cell line, were grown in DMEM high glucose (4.5 g/L) containing L-glutamine (Lonza, Belgium) and supplemented with 5% FBS (Capricorn Scientific GmbH, South America) and 1% gentamicin (Virbac, RSA) in the same environment as cancer cells. The RAW 264.7 murine macrophage cells (obtained from ATCC) were cultured in DMEM high glucose (4.5 g/L) containing L-glutamine (Lonza, Belgium), supplemented with 10% FBS (Capricorn Scientific GmbH, South America) and 1% penicillin/streptomycin/fungizone (PSF) solution, and kept at 37°C in a 5% CO2 humidified environment.
(§2) The cancerous and non-cancerous cells were seeded at a density of 10^4 cells per well in 96-well microtiter plates, and they were incubated overnight at 37°C with 5% CO2 in a 5% CO2 humidified environment in order to allow the attachment of cells at the bottom of the plates. Then, the cells were exposed to increasing concentrations of compounds (100, 50, 25, 10 and 5 μg/mL) dissolved in dimethyl sulfoxide (DMSO) and further diluted in fresh culture medium. In this assay, the final concentration of DMSO in the culture medium was 0.5% used as negative control while doxorubicin hydrochloride (Pfizer, United States of America) was used as a positive control. The culture plates were incubated for 48 h at 37°C in a 5% CO2 humidified environment, after which the culture medium was discarded, and replaced by 200 µL of fresh culture medium with 30 µL of 3-(4,5-dimethylthiazol-2-yl)-2,5-diphenyl-2H-tetrazolium bromide (MTT) (5 mg/mL) dissolved in phosphate buffered saline ([Mosmann, 1983]). After 4 h of incubation, the medium was gently removed, and the formazan crystals were solubilized in 50 µL of DMSO. The absorbance was measured at 570 nm after shaking for 1 min on a microplate reader (Synergy Multi-Mode Reader, BioTek, Winooski, United States of America).
(§3) The cell viability rate was determined at each concentration of the compound as a percentage of cells treated with DMSO at 0.5% used as negative control. […] The selectivity index (Supporting Material) values were calculated for each compound by dividing the IC50 of non-cancerous cells by the IC50 of cancerous cells in the same units ([Mfotie Njoya et al., 2018]; [Mfotie Njoya et al., 2020]).

15-LOX = target: T1, 15-LOX (Glycine max, UniProt P08170); experiment: Soybean 15-LOX inhibitory assay (FOX); assay type: biochemical; settings: linoleic acid 140 μM, pH 7.4, 25°C
T1 construct: purchased Merck, Darmstadt, Germany
T1 sequence (P08170 1-839): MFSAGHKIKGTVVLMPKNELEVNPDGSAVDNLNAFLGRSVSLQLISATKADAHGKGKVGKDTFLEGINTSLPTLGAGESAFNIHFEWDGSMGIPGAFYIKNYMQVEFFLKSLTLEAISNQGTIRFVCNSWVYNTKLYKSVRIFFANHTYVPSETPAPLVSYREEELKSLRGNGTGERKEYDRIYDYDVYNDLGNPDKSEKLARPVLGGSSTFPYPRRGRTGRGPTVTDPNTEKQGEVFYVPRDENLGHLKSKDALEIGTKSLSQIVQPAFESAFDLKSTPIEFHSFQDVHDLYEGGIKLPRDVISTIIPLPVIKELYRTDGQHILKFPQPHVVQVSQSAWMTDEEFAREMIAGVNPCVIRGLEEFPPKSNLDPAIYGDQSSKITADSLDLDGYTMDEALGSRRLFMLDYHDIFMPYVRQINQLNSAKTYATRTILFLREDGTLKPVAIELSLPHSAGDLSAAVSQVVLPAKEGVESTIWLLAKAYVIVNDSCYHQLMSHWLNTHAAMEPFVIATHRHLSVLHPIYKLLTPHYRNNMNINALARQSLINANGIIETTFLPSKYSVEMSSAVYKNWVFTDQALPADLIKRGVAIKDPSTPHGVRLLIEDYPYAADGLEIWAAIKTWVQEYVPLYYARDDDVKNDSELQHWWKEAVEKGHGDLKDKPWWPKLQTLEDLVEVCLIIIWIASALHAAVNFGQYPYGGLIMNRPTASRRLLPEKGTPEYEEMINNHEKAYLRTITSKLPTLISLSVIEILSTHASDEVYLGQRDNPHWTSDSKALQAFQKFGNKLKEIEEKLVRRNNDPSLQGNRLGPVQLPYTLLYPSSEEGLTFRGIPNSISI
Protocol: This assay is based on the formation of the Fe^3+/xylenol orange (FOX) complex with maximal absorption at 560 nm ([Pinto et al., 2007]). Forty microliters of 15-LOX (final concentration: 200 UI/mL) from Glycine max (Merck, Darmstadt, Germany) was incubated with 20 µL of tested samples (100, 50, 25, 10, and 5 μg/mL) at 25°C for 5 min, with DMSO at 10% (v/v) being used as negative control. Thereafter, 40 µL of linoleic acid (final concentration, 140 μM) prepared in Tris-HCl buffer (50 mM, pH 7.4) was added, and the plates were further incubated at 25°C for 20 min in the dark. The assay was terminated by adding 100 μL of FOX reagent [sulfuric acid (30 mM), xylenol orange (100 μM), ferrous II) sulfate (100 μM), dissolved in methanol/water (9:1)], followed by the incubation of the plates at 25°C for 30 min in the dark. Finally, the absorbance was measured at 560 nm on a microplate reader (Epoch, BioTek, Winooski, United States of America). The blanks were made in the same way as tested samples except that the substrate was added after the FOX reagent. The 15-LOX inhibitory activity was calculated by using the following formula: 15−LOX inhibitory activity %=100−Abs sample−Abs blank/Abs negative control−Abs blank×100 (1)

Vero cells = experiment: MTT antiproliferation assay, non-cancerous Vero cells; assay type: cell-based, African green monkey; settings: for IC50: Chlorocebus sabaeus, Vero, 48 h, MTT
Protocol: as §1, §2, §3

[1] = read-out: IC50 values 15-LOX (converted)

| IC50 (MCF-7 cells) | IC50 (15-LOX; [1]) [µM] | SMILES | SI values MCF7 (MCF-7 cells) | IC50 (15-LOX; IC50 values 15-LOX) | IC50 (Vero cells) | selectivity (SI) towards non-cancerous Vero cells (Vero cells; cancer cells except A549 cells) | selectivity (SI) for all cancer cells towards non-cancerous Vero cells (Vero cells; all cancer types (MCF-7, HepG2, Caco-2, A549)) |
| --- | --- | --- | --- | --- | --- | --- | --- |
| 5.96 µg/mL and 9.42 µM | > 158 | C[C@@H]1CC[C@]2(C(=O)O)CC[C@]3(C(=O)O)C(=CCC4[C@@]5(C)CC[C@H](O[C@H]6O[C@H](C)[C@@H](O)[C@H](O)[C@H]6O)C(C)(C)C5CC[C@]43C)C2[C@H]1C (stereo partly drawn) [Compound 6, quinovic acid 3-O-[α-D-quinovopyranoside]] | 1.04 | – | 6.21 µg/mL and 9.81 µM | ≤ 1 | – |
| 51.5 µg/mL and 81.4 µM | 118 | C[C@@H]1CC[C@]2(C(=O)O)CC[C@]3(C(=O)O)C(=CCC4[C@@]5(C)CC[C@H](O[C@@H]6O[C@H](C)[C@@H](O)[C@H](O)[C@H]6O)C(C)(C)C5CC[C@]43C)C2[C@H]1C (stereo partly drawn) [Compound 9, quinovic acid 3-O-[β-D-quinovopyranoside]] | 0.91 | – | 47.1 µg/mL and 74.4 µM | – | ≤ 1 |
| 32.9 µg/mL and 107 µM | 253 | C[C@]12COCC=C1C[C@H]1c3[nH]c4ccccc4c3CCN1C2=O [Compound 10, latifoliamide C] | 2.01 | – | 65.8 µg/mL and 213 µM | – | – |

| SMILES | IC50 (MCF-7 cells) | IC50 (15-LOX; [1]) [µM] | SI values MCF7 (MCF-7 cells) | IC50 (15-LOX; IC50 values 15-LOX) | IC50 (Vero cells) | selectivity (SI) towards non-cancerous Vero cells (Vero cells; cancer cells except A549 cells) | selectivity (SI) for all cancer cells towards non-cancerous Vero cells (Vero cells; all cancer types (MCF-7, HepG2, Caco-2, A549)) |
| --- | --- | --- | --- | --- | --- | --- | --- |
| CC1(C)CC[C@]2(C(=O)O)CC[C@]3(C)C(=CC[C@@H]4[C@@]5(C)CC[C@H](O)[C@@](C)(CO)[C@@H]5CC[C@]43C)[C@@H]2C1 [Compound 2, hederagenin] | 8.92 µg/mL and 18.9 µM | – | 5.11 | 28.4 µM and 28.2 µM | 45.5 µg/mL and 96.3 µM | – | – |
